Test results published in article PMC9694711, “Synthesis of Paclitaxel Derivatives for Remote Loading into Liposomes and Improved Therapeutic Effect” (Molecules, 2022).

Key:
[1] = test system: breast cancer cell line 4T1; assay: MTT assay, cytotoxicity on 4T1; assay type: cell-based, mouse; conditions: for GI50: Mus musculus, MTT, 72 h, mean of two independent determinations; for inhibition % at fixed concentration, 4T1 (printed in GI50 column): @100 nM
Protocol: (§1) MTT assay was applied to verify the rationality of the molecular combination strategy. The cytotoxicity of the compounds was evaluated on lung cancer cell line A549, colon cancer cell line HCT-116, breast cancer cell line 4T1 and normal hepatocyte cell line LO2. Paclitaxel was used as a positive drug. […] The therapeutic index (TI) for LO2/HCT-116, LO2/A549 and LO2/4T1 of active compounds 4a, 4d, 13a, 17a, 17c and paclitaxel are shown in Table 2.
(§2) Cells were inoculated in 96-well plates (cell density 2 × 10^4 cells/well) followed by incubation for 24 h at 37 °C. Paclitaxel and target compounds were added to the corresponding well. Subsequently, the cultures were incubated for 72 h. After the MTT solution (50 µL, 2 mg/mL) was added to cultures, the plates were incubated for an additional 4 h. Purple colored formazan crystals were dissolved in 200 µL DMSO, and the absorbance was recorded at 570 nm using Synergy HT, Bio-Tek (Winooski, VT, USA).

[2] = test system: lung cancer cell line A549; assay: MTT assay, cytotoxicity on A549; assay type: cell-based, human; conditions: Homo sapiens, A549; MTT, 72 h; mean of two independent determinations
Protocol: as §1, §2

[3] = test system: colon cancer cell line HCT-116; assay: MTT assay, cytotoxicity on HCT-116; assay type: cell-based, human; conditions: for GI50: Homo sapiens, HCT-116, MTT, 72 h, mean of two independent determinations
Protocol: as §1, §2

[4] = test system: normal hepatocyte cell line LO2; assay: MTT assay, cytotoxicity on normal cell LO2; assay type: cell-based; conditions: Hepatocyte; MTT, 72 h; mean of two independent determinations
Protocol: as §1, §2

Work on `CC(=O)OC12COC1CC(O)C1(C)C(=O)C(O)C3=C(C)C(OC(=O)C(OC(=O)CCC(=O)OCc4ccc(B(O)O)cc4)C(NC(=O)OC(C)(C)C)c4ccccc4)CC(O)(C(OC(=O)c4ccccc4)C21)C3(C)C` (stereo not shown) [Compound 4b, 2’-O-[4-((4-boronobenzyl)oxy)-4-oxobutyryl]docetaxel] yielded a GI50 [1] of 54.7 nM.

For `CC(=O)OC1C(=O)C2(C)C(O)CC3OCC3(OC(C)=O)C2C(OC(=O)c2ccccc2)C2(O)CC(OC(=O)C(OC(=O)CCCC(=O)OCc3ccc(B(O)O)cc3)C(NC(=O)c3ccccc3)c3ccccc3)C(C)=C1C2(C)C` (stereo not shown) [Compound 4c, 2’-O-[5-((4-boronobenzyl)oxy)-5-oxopentanoyl]taxol], the GI50 [1] was > 100 nM.

In the case of `CC(=O)OC1C(=O)C2(C)C(O)CC3OCC3(OC(C)=O)C2C(OC(=O)c2ccccc2)C2(O)CC(OC(=O)C(OC(=O)CCSSCCC(=O)OCc3ccc(B(O)O)cc3)C(NC(=O)c3ccccc3)c3ccccc3)C(C)=C1C2(C)C` (stereo not shown) [Compound 4e, 2’-O-[3-((3-((4-boronobenzyl)oxy)-3-oxopropyl)disulfaneyl)propionyl]taxol], the GI50 [1] is reported as > 100 nM.

In the case of `CC(=O)OC1C(=O)C2(C)C(O)CC3OCC3(OC(C)=O)C2C(OC(=O)c2ccccc2)C2(O)CC(OC(=O)C(OC(=O)c3ccc(B(O)O)cc3)C(NC(=O)c3ccccc3)c3ccccc3)C(C)=C1C2(C)C` (stereo not shown) [Compound 6a, 2’-O-[4-boronobenzoyl]taxol], the GI50 [1] is reported as > 100 nM, the GI50 [2] is reported as > 100 nM and the GI50 [3] is reported as > 100 nM.

`CC(=O)OC12COC1CC(O)C1(C)C(=O)C(O)C3=C(C)C(OC(=O)C(OC(=O)c4ccc(B(O)O)cc4)C(NC(=O)OC(C)(C)C)c4ccccc4)CC(O)(C(OC(=O)c4ccccc4)C21)C3(C)C` (stereo not shown) [Compound 6b, 2’-O-[4-boronobenzoyl]docetaxel] was tested, and the GI50 [1] was > 100 nM.

In the case of `CC(=O)OC1C(=O)C2(C)C(O)CC3OCC3(OC(C)=O)C2C(OC(=O)c2ccccc2)C2(O)CC(OC(=O)C(OC(=O)OCCCCCCB(O)O)C(NC(=O)c3ccccc3)c3ccccc3)C(C)=C1C2(C)C` (stereo not shown) [Compound 10b, 2’-O-[6-boronohexyl carbonate]taxol], the GI50 [4] is reported as 745 nM, the GI50 [1] is reported as > 100 nM and the GI50 [3] is reported as > 100 nM.

`CC(=O)OC12COC1CC(O)C1(C)C(=O)C(O)C3=C(C)C(OC(=O)C(OC(=O)OCCCCCCB(O)O)C(NC(=O)OC(C)(C)C)c4ccccc4)CC(O)(C(OC(=O)c4ccccc4)C21)C3(C)C` (stereo not shown) [Compound 10c, 2’-O-[6-boronohexyl carbonate] docetaxel] was tested, and the GI50 [4] was 273 nM, the “inhibition % at fixed concentration, 4T1 (printed in GI50 column)” value [1] was 35.97%@100 nM and the “inhibition % at fixed concentration, HCT-116 (printed in GI50 column)” value ([3]; @100 nM) was 55.66%@100 nM.

With `CC(=O)OC12COC1CC(O)C1(C)C(=O)C(O)C3=C(C)C(OC(=O)C(OC(=O)OCc4ccc(B(O)O)cc4)C(NC(=O)OC(C)(C)C)c4ccccc4)CC(O)(C(OC(=O)c4ccccc4)C21)C3(C)C` (stereo not shown) [Compound 13b, 2’-O-[4-boronobenzyl carbonate] docetaxel] the GI50 [1] was 33.1 nM.

With `CC(=O)OC1C(=O)C2(C)C(O)CC3OCC3(OC(C)=O)C2C(OC(=O)c2ccccc2)C2(O)CC(OC(=O)C(OC(=O)CCCCCB(O)O)C(NC(=O)c3ccccc3)c3ccccc3)C(C)=C1C2(C)C` (stereo not shown) [Compound 17d, 2’-O-[6-boronohexanoyl]taxol] the GI50 [1] was > 100 nM, the GI50 [2] was > 100 nM and the GI50 [3] was > 100 nM.

`CC(=O)OC1C(=O)C2(C)C(O)CC3OCC3(OC(C)=O)C2C(OC(=O)c2ccccc2)C2(O)CC(OC(=O)C(OC(=O)CCCCCCB(O)O)C(NC(=O)c3ccccc3)c3ccccc3)C(C)=C1C2(C)C` (stereo not shown) [Compound 17e, 2’-O-[7-boronoheptanoyl]taxol] was tested, and the GI50 [1] was > 100 nM, the GI50 [2] was > 100 nM and the GI50 [3] was > 100 nM.

`CC(=O)OC12COC1CC(O)C1(C)C(=O)C(O)C3=C(C)C(OC(=O)C(OC(=O)CCCB(O)O)C(NC(=O)OC(C)(C)C)c4ccccc4)CC(O)(C(OC(=O)c4ccccc4)C21)C3(C)C` (stereo not shown) [Compound 17f, 2’-O-[4-boronobutanoyl]docetaxel] gave a GI50 [1] of 14.5 nM.

With `CC(=O)OC12COC1CC(O)C1(C)C(=O)C(O)C3=C(C)C(OC(=O)C(OC(=O)CCCCCB(O)O)C(NC(=O)OC(C)(C)C)c4ccccc4)CC(O)(C(OC(=O)c4ccccc4)C21)C3(C)C` (stereo not shown) [Compound 17g, 2’-O-[6-boronohexanoyl]docetaxel] the “inhibition % at fixed concentration, 4T1 (printed in GI50 column)” value [1] was 35.83%@100 nM.
